Results on 21 compounds are retold here after ChEMBL document CHEMBL4052601, “Glycybridins A-K, Bioactive Phenolic Compounds from Glycyrrhiza glabra” (J Nat Prod, 2017).

Peptide text beside a SMILES is read from it. * marks the point of attachment. Cbz = O=C(OCc1ccccc1)*

Experiment [1] concerns A549. The experiment can be described thus: Antiproliferative activity against human A549 cells at 10 uM after 24 hrs by MTS assay relative to control. The class given is functional. The following applies: A549, 24 h. (In general: Tetrazolium assays rely on reduction of a dye to a coloured formazan, in cell work by metabolically active cells.)
For experiment [2], the system named is SW480. The experiment can be described thus: Antiproliferative activity against human SW480 cells at 10 uM after 24 hrs by MTS assay relative to control. The experiment is classed as functional. The following applies: SW480, 24 h.
Experiment [3] concerns RAW264.7. The experiment can be described thus: Antiinflammatory activity against mouse RAW264.7 cells assessed as inhibition of LPS-induced nitric oxide production at 10 uM after 24 hrs by Griess assay relative to control. The conditions noted are these: RAW264.7, 24 h. The class given is functional.
The target in experiment [4] is T1, Tyrosinase (Homo sapiens) (UniProt P14679).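 Also: tyrosinase of unspecified origin acting on L-tyrosine, compound preincubated with enzyme for 15 min before adding substrate, inhibition expressed versus control.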
T1 sequence (whole entry): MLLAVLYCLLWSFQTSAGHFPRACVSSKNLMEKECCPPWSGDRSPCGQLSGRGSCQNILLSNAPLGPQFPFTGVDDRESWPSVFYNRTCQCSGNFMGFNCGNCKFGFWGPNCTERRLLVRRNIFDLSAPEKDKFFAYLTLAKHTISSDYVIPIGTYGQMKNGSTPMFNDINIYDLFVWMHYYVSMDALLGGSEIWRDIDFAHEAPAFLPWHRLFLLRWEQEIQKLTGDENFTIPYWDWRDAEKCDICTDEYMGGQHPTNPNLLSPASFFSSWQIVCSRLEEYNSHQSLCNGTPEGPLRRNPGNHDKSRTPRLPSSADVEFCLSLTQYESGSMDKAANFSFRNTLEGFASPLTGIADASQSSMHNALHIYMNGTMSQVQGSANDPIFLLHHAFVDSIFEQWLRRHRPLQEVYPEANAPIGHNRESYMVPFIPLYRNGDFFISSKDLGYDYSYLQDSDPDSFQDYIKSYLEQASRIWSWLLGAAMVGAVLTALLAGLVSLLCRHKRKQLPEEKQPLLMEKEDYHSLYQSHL
The following applies: at 10 µM.
Description: Inhibition of tyrosinase (unknown origin) using L-tyrosine as substrate at 10 uM preincubated for 15 mins followed by substrate addition relative to control

For experiment [5], the target named is T2, Tyrosine-protein phosphatase non-receptor type 1 (Homo sapiens) (UniProt P18031).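 Also: recombinant enzyme assay with pNPP substrate, inhibition read after 30 min versus untreated control.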
T2 sequence (whole entry): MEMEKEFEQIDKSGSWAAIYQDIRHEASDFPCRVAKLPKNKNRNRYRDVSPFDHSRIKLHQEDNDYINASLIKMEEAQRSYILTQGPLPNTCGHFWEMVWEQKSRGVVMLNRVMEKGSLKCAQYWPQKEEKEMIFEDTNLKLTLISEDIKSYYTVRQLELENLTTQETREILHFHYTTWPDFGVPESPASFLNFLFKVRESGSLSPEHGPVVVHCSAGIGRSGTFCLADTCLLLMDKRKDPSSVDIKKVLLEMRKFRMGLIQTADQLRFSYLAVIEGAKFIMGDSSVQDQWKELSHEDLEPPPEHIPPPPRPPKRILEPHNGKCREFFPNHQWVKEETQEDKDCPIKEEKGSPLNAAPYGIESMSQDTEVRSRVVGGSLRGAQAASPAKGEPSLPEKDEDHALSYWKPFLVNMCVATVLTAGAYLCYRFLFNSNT
The conditions noted are these: at 10 µM.
Description: Inhibition of recombinant human PTP1B using pNPP as substrate at 10 uM after 30 mins relative to control

In experiment [6] the test system is MCF7. The experiment can be described thus: Antiproliferative activity against human MCF7 cells at 10 uM after 24 hrs by MTS assay relative to control. The class given is functional. The following applies: MCF7, 24 h.
Experiment [7] has as its system HepG2. The experiment can be described thus: Antiproliferative activity against human HepG2 cells at 10 uM after 24 hrs by MTS assay relative to control. The conditions noted are these: HepG2, 24 h. The experiment is classed as functional.
The test system of experiment [8] is Homo sapiens. The experiment can be described thus: Inhibition of LPS-induced NF-kappaB (unknown origin) transactivation expressed in human SW480 cells at 10 uM administered 1 hr after LPS stimulation measured after 6 hrs by luciferase reporter gene assay relative to control. The experiment is classed as cell-based.

In the case of `CC1(C)C=Cc2c(ccc3c2OC[C@H]2c4ccc(O)cc4O[C@@H]32)O1` [SHINPTEROCARPIN], the inhibition at 10 µM in experiment [1] came to 2.2%; in experiment [2], 0%; in experiment [3], 4.1%; in experiment [6], 14.4%; in experiment [7], 65%. Further, the results for the inhibition in experiment [4], in experiment [5] and in experiment [8] were 11.2%, 13.3% and 0%, respectively.
On to `CC(C)=CCc1c(O)ccc(C(=O)/C=C/c2ccc(O)cc2)c1O` [ISOBAVACHALCONE], for which the inhibition at 10 µM amounted to 3.5% in experiment [1]; 46.7% in experiment [2]; 7.5% in experiment [3]; 15.6% in experiment [6]; 27.3% in experiment [7]. Besides, the inhibition was 18.4% in experiment [4], 16% in experiment [5] and 13.2% in experiment [8].
In the case of `CC1(C)C=Cc2c(O)ccc(-c3cc4ccc(O)cc4o3)c2O1`, the inhibition at 10 µM in experiment [1] stood at 6.5%; in experiment [2], 6.4%; in experiment [3] it was 48.9%; in experiment [6], 9.7%; in experiment [7], 0%. In addition, the inhibition in experiment [4] came to 12.5%; in experiment [5], 1.3%; in experiment [8], 32.2%.
For the compound `CC(C)=CCc1cc([C@H]2Oc3cc(O)ccc3C[C@H]2O)ccc1O`, the inhibition at 10 µM in experiment [1] was found to be 13.3%; in experiment [2] it was 32.7%; in experiment [3], 1.8%; in experiment [6], 18.6%; in experiment [7] it was 7.3%. Moreover, the inhibition in experiment [4] is 14.3%; in experiment [5], 10.4%; in experiment [8] it was 9.8%.
In the case of `CC(C)C[C@@H](C=O)NC(=O)[C@H](CC(C)C)NC(=O)[C@H](CC(C)C)NC(=O)OCc1ccccc1` (Cbz-Leu-Leu-Leu-aldehyde), the inhibition in experiment [8] was 79.2%.
`COc1ccc([C@@H]2COc3c(ccc4c3C=CC(C)(C)O4)C2)c(O)c1O`: the inhibition at 10 µM in experiment [1] came to 30.2%; in experiment [2], 12.9%; in experiment [3], 17.3%; in experiment [6], 23.3%; in experiment [7], 49.6%. Further, the inhibition in experiment [4] was 18.4%; in experiment [5], 22.4%; in experiment [8] it was 22.1%.
For `CC1(C)C=Cc2c(ccc3c(=O)c(Oc4ccc(O)cc4O)coc23)O1`, the inhibition at 10 µM in experiment [1] turned out to be 0%; in experiment [2], 7.1%; in experiment [3] it was 6.3%; in experiment [6] it was 2.6%; in experiment [7], 29.9%. Moreover, the values for the inhibition in experiment [4], in experiment [5] and in experiment [8] were 2.4%, 12.8% and 18.1%, respectively.
Regarding `CC1(C)C=Cc2cc3c(cc2O1)OCC(c1ccc(O)c2c1OC(C)(C)C=C2)=C3`, the inhibition at 10 µM turned out to be 0.7% in experiment [1]; 24.3% in experiment [2]; 2.6% in experiment [3]; 26.6% in experiment [6]; 0% in experiment [7]. For the same compound, the inhibition worked out at 1.3% in experiment [4], 95.3% in experiment [5] and 0% in experiment [8].
Take `CC1(C)C=Cc2c(ccc([C@@H]3COc4c(ccc5c4C=CC(C)(C)O5)C3)c2O)O1` [HISPAGLABRIDIN B]: the inhibition at 10 µM in experiment [1] came out at 34.3%; in experiment [2], 47.9%; in experiment [3], 10.5%; in experiment [6] it was 38.3%; in experiment [7], 45.9%. Also, the figures for the inhibition in experiment [4], in experiment [5] and in experiment [8] were 0%, 42% and 0%, respectively.
Turning to `CC(C)=CCc1cc(C[C@@H](O)C(=O)c2cc(CC=C(C)C)c(O)cc2O)ccc1O`, the inhibition at 10 µM in experiment [1] turned out to be 46.1%; in experiment [2] it was 24.6%; in experiment [3], 0%; in experiment [6], 42.1%; in experiment [7], 5.8%. Also, the inhibition in experiment [4] was found to be 8.3%; in experiment [5], 27%; in experiment [8] it was 24.3%.
On to `C[C@H]1[C@H](C)CC[C@]2(C(=O)O)CC[C@]3(C)C(=CC[C@@H]4[C@@]5(C)CC[C@H](O)C(C)(C)[C@@H]5CC[C@]43C)[C@H]12`, for which the inhibition in experiment [5] was found to be 82.1%.
`CC(C)=CCc1c(O)cc(O)c2c(=O)c(-c3ccc(O)cc3)coc12`: the inhibition at 10 µM in experiment [1] was determined as 0%; in experiment [2] it was 21.2%; in experiment [3] it was 1.5%; in experiment [6], 19.7%; in experiment [7], 32.4%. The inhibition was found to be 1.6% in experiment [4], 10.6% in experiment [5] and 7.1% in experiment [8].
Turning to `CC1(C)C=Cc2c(ccc3c(=O)c(-c4ccc(O)cc4O)coc23)O1`, the inhibition at 10 µM in experiment [1] was determined as 4.9%; in experiment [2], 0%; in experiment [3], 12.1%; in experiment [6] it was 42.1%; in experiment [7], 30%. Further, the inhibition amounted to 1% in experiment [4], 6% in experiment [5] and 1.5% in experiment [8].
As for `CC1(C)C=Cc2c(ccc3c2O[C@H]2c4ccc(O)cc4OC[C@@H]32)O1` [PHASEOLIN], the inhibition at 10 µM in experiment [1] amounted to 34.7%; in experiment [2], 0%; in experiment [3], 2.6%; in experiment [6] it was 6.8%; in experiment [7] it was 0%. The values for the inhibition in experiment [4], in experiment [5] and in experiment [8] were 2.4%, 9.5% and 2.1%, respectively.
Turning to `COc1ccc2c(c1)O[C@H]1c3ccc(O)c(CC=C(C)C)c3OC[C@@H]21` [LICOAGROCARPIN], the inhibition at 10 µM in experiment [1] was found to be 37.3%; in experiment [2], 18.2%; in experiment [3] it was 16.7%; in experiment [6] it was 52.9%; in experiment [7], 8.3%. Besides, the results for the inhibition in experiment [4], in experiment [5] and in experiment [8] were 0%, 4.9% and 0%, respectively.
Regarding `CC1(C)C=Cc2c(ccc(-c3oc4cc(O)ccc4c3C=O)c2O)O1`, the inhibition at 10 µM in experiment [1] was 7.9%; in experiment [2] it was 5.3%; in experiment [3], 36.5%; in experiment [6], 35.8%; in experiment [7] it was 21%. The inhibition in experiment [4] came to 10.5%; in experiment [5], 9.3%; in experiment [8], 36.6%.
Take `CCc1c2c(nc3ccc(OC(=O)N4CCC(N5CCCCC5)CC4)cc13)-c1cc3c(c(=O)n1C2)COC(=O)[C@]3(O)CC` [IRINOTECAN]: the inhibition at 10 µM was determined as 91.8% in experiment [1], 95% in experiment [2], 93.6% in experiment [6] and 98.9% in experiment [7].
Consider `CC(C)=CCc1c(O)ccc(C(=O)/C=C/c2cc(O)c3c(c2)C=CC(C)(C)O3)c1O`, for which the inhibition at 10 µM in experiment [1] came out at 10.9%; in experiment [2], 34.7%; in experiment [3], 2%; in experiment [6], 72%; in experiment [7], 21.7%. In addition, the inhibition in experiment [4] came out at 0%; in experiment [5], 47.1%; in experiment [8], 23.1%.
Turning to `COc1c(CC=C(C)C)c(O)cc2c1C[C@H](c1ccc(O)cc1O)CO2`, the inhibition in experiment [4] came to 91.1%.
Consider `CC1(C)C=Cc2c(cc(O)c3c2OCC(c2ccc(O)cc2O)C3=O)O1` (stereo unspecified), for which the inhibition at 10 µM in experiment [1] amounted to 4.3%; in experiment [2], 29.6%; in experiment [3] it was 1.9%; in experiment [6], 12.7%; in experiment [7], 37.6%. The figures for the inhibition in experiment [4], in experiment [5] and in experiment [8] were 35.6%, 58.5% and 0.1%, respectively.
For the compound `COc1cc(/C=C/C(=O)CC(=O)/C=C/c2ccc(O)c(OC)c2)ccc1O` [CURCUMIN], in experiment [3], the inhibition at 10 µM was found to be 70%.

As usually defined, the inhibition is the drop in the measured response relative to a control, in per cent.
